Data taken from patent US10030016B2 (Sunesis Pharmaceuticals, Inc., priority 2009, dated 2018).
Structures can show the parent of a compound that is named as a salt.

These compounds were tested on phospho-akt (Thr308) in PC-3 cells (assay: Inhibition of phospho-akt (Thr308) in PC-3 cells, MSD phospho-akt 308 ELISA kit). Conditions: Homo sapiens; inhibition of P308 Akt in PC-3 cells using MSD, 2 hours, no serum; read-out: EC50.
Assay type: cell-based
Procedure: PC-3 cells were harvested by trypsin and counted. Cells were plated in coated 96-well flat bottom plates (plate 15,000 cells/well in 100 ul growth media (10% FBS, 1× pen-strep) an place in an incubator overnight.
Subject inhibitors were stocked at 50 mM, then diluted to 30 mM (4.8 μl cpd plus […] DMSO) in 100% DMSO. Three-fold dilutions were performed from 30 mM stock. (4 μl into 8 ul 100% DMSO). Aliquots of 1.0 μl of inhibitor solution were transferred into SF Medium (using deep well block).
Control wells were prepared as follows. For DMSO high controls, 1.0 μl of 100% DMSO was added into 1.0 ml SF. For low controls for PC-3 cells, 5 μM of Wortmannin (10 μl of 1 mM Wortmannin stock was added into 2 ml SF Medium. The supernatant media was removed and the plate was blotted. 100 μl of controls/media or compound/media were added to cells and placed in incubator for 2 hours. The supernatant media was removed and the plate was blotted. 55 μl of the MSD complete lysis buffer was added (10 mls Tris Lysis buffer, 200 ul protease inhibitor, 100 ul phosphatase inhibitor 1, and 100 ul phosphatase inhibitor II). The plate was placed on a plate shaker for 60 mins at 4 deg.
MSD plates were blocked for 1 hour by adding 150 μl of Blocking Solution (3% BSA) to each well. The MSD plates were washed 4× with TBST, and 50 μl lysates were transferred to MSD plate and place on plate shaker shake at 4 degrees O/N, light shaking (speed 3.5). The plate was washed 4× with TBST.
25 μl of Ab detection solution was added to each well. The plate was sealed and incubated 1 hr RT, light shaking (speed 3.5). The plate was washed 4 times with TBST. 150 μl of Read Buffer was added (5 mls 4×MSD Read Buffer+15 mls water). Finally the plate was read immediately on the MSD plate reader.

| SMILES | EC50 [nM] |
| --- | --- |
| C[C@H](NC(=O)c1cc(C#N)cnc1NCc1ccc(-c2cnc3[nH]c(=O)n(C)c3c2)cc1)c1ccc(F)cc1 [Example 140, (S)-5-cyano-N-(1-(4-fluorophenyl)ethyl)-2-(4-(1-methyl-2-oxo-2,3-dihydro-1H-imidazo [4,5-b]pyridin-6-yl)benzylamino)nicotinamide] | < 1000 |
| C[C@H](NC(=O)c1nc(C(F)(F)F)cnc1N[C@H](C)c1ccc(-c2cnc3[nH]nc(N)c3c2)cc1)c1ccc(F)c(F)c1 [Example 427, 3-((R)-1-(4-(3-amino-1H-pyrazolo[3,4-b]pyridin-5-yl)phenyl)ethylamino)-N-((S)-1-(3,4-difluorophenyl)ethyl)-6-(trifluoromethyl) pyrazine-2-carboxamide] | 1000 to 10000 |
| Nc1ncc(-c2ccc(CNc3ncc(C(F)(F)F)cc3C(=O)Nc3ccc(F)cc3)cc2)nc1CO [Example 242, 2-[4-(5-Amino-6-hydroxy-methyl-pyrazin-2-yl)-benzylamino]-N-(4-fluoro-phenyl)-5-trifluoromethyl-nicotinamide] | < 1000 |
| C[C@H](NC(=O)c1nc(C#N)cnc1N[C@H](C)c1ccc(-c2cnc3[nH]nc(N)c3c2)nc1)c1ccc(F)c(F)c1 [Example 415, 3-{(R)-1-[6-(3-Amino-1H-pyrazolo[3,4-b]pyridin-5-yl)-pyridin-3-yl]-ethylamino}-6-cyano-pyrazine-2-carboxylic acid [(S)-1-(3,4-difluoro-phenyl)-ethyl]-amide] | < 1000 |
| N#Cc1cc(F)ccc1NC(=O)c1cc(C(F)(F)F)cnc1NCc1ccc(-c2cnc3[nH]nc(N)c3c2)cc1 [Example 418, 2-(4-(3-amino-1H-pyrazolo [3,4-b]pyridin-5-yl)benzylamino)-N-(2-cyano-4-fluorophenyl)-5-(trifluoromethyl)nicotinamide] | 1000 to 10000 |
| C[C@H](NC(=O)c1cc(C#N)cnc1NCc1ccc(-c2cnc3[nH]nc(N)c3c2)cc1Cl)c1ccc(F)cc1 [Example 406, 2-[4-(3-Amino-1H-pyrazolo [3,4-b]pyridin-5-yl)-2-chloro-benzylamino]-5-cyano-N-[(S)-1-(4-fluoro-phenyl)-ethyl]-nicotinamide] | 1000 to 10000 |
| C[C@H](NC(=O)c1cc(C#N)cnc1NCc1ccc(-c2cnc3[nH]c(=O)[nH]c3c2)c(F)c1)c1ccc(F)cc1 [Example 127, (S)-5-cyano-2-(3-fluoro-4-(2-oxo-2,3-dihydro-1H-imidazo[4,5-b]pyridin-6-yl)benzyl-amino)-N-(1-(4-fluorophenyl)ethyl) nicotinamide] | < 1000 |
| C[C@H](NC(=O)c1cc(C#N)cnc1NCC#Cc1ccc2nc(N)ncc2c1)c1ccc(F)cc1 [Example 257, (S)-2-(3-(2-aminoquinazolin-6-yl)prop-2-ynylamino)-5-cyano-N-(1-(4-fluorophenyl)ethyl)nicotinamide] | < 1000 |
| C[C@H](NC(=O)c1nc(C(F)(F)F)cnc1NCc1ccc(-c2cnc3[nH]nc(N)c3c2)cc1)c1ccc(F)c(F)c1 [Example 428, (S)-3-(4-(3-amino-1H-pyrazolo[3,4-b]pyridin-5-yl)benzylamino)-N-(1-(3,4-difluorophenyl)ethyl)-6-(trifluoromethyl) pyrazine-2-carboxamide] | < 1000 |

Same assay, conditions: Homo sapiens; inhibition of P308 Akt in PC-3 cells, 2 hours, no serum, MSD; read-out: EC50

| SMILES | EC50 [nM] |
| --- | --- |
| Nc1ncnc2ccc(-c3ccc(CNc4ncccc4C(=O)NCc4cncc(F)c4)s3)cc12 [Example 3.65, 2-({[5-(4-aminoquinazolin-6-yl)thiophen-2-yl]methyl}amino)-N-[(5-fluoropyridin-3-yl)methyl] pyridine-3-carboxamide (TFA salt)] | 1000 to 10000 |
| Cc1ccc(NC(=O)c2cccnc2NCc2ccc(-c3ccc4ncnc(N)c4c3)s2)cc1F [Example 3.50, 2-({[5-(4-aminoquinazolin-6-yl)thiophen-2-yl]methyl}amino)-N-(3-fluoro-4-methylphenyl) pyridine-3-carboxamide (TFA salt)] | > 10000 |
| Nc1ncnc2ccc(-c3ccc(CNc4ncc(Br)cc4S(=O)(=O)NCc4ccc(F)c(F)c4)s3)cc12 [Example 20.1, 2-(((5-(4-aminoquinazolin-6-yl)thiophen-2-yl)methyl)amino)-5-bromo-N-(3,4-difluorobenzyl)pyridine-3-sulfonamide] | > 10000 |
